Assay results published in patent US6855730B2, “3-methylidenyl-2-indolinone modulators of protein kinase” (Sugen, Inc., priority 1998, dated 2005).

Tests used:
PDGFR-β = target: T1, PDGFR-β (Homo sapiens, UniProt P09619); experiment: Biochemical PDGFR assay (ELISA, PDGFR-β expressing NIH 3T3 cell lysate); conditions: read-out: bio PDGF IC50
T1 construct: host or cells: NIH 3T3
Outline: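 Phosphorylation was read by ELISA (anti-phosphotyrosine serum, peroxidase secondary, ABTS at 410 nm) after a 30 min room-temperature reaction with 20 μM ATP, EDTA-stopped. Kinase was lysate-derived PDGFR-β (NIH 3T3) immobilised via 28D4C10 antibody, compound added 30 min before ATP.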

[1] = target: Myc-GyrB-FGFR fusion protein (Homo sapiens, UniProt P11362); experiment: Biochemical FGFR assay (ELISA); conditions: read-out: bio fgfR1 IC50
human flk-1 = target: T2, human flk-1 (Homo sapiens, UniProt P35968); experiment: Biochemical FLK-1 assay (flk-1 autophosphorylation ELISA); conditions: read-out: bio FLK1 IC50 (μM) % if inhibition at 100
T2 construct: host or cells: Flk-1/NIH cells (NIH fibroblasts)
Method: This assay evaluates flk-1 autophosphorylation activity in vitro using ELISA.
Materials And Reagents • 1. 15 cm tissue culture dishes • 2. Flk-1/NIH cells: NIH fibroblast line over-expressing human flk-1clone 3 (SUGEN, Inc., obtained from MPI, Martinsried, Germany). • 3. Growth medium: DMEM plus heat inactivated 10% FBS and 2 mM Glutamine (Gibco-BRL). • 4. Starvation medium: DMEM plus 0.5% heat-inactivated FBS, 2 mM Glutamine (Gibco-BRL). • 5. […] L4 or E38 monoclonal antibody specific for flk-1, Purified by Protein-A agarose affinity chromatography (SUGEN, Inc.). • 7. PBS (Dulbecco's Phosphate-Buffered Saline) Gibco Cat. No. 450-1300EB). • 8. HNTG (see BIOCHEMICAL FGFR for preparation). • 9. Pierce BCA protein determination kit. • 10. Blocking buffer • 11. TBST (pH 7.0) • 12. Kinase Buffer • 13. Kinase Stop Solution: 200 mM EDTA. • 14. […] AB kit (Vector Laboratories Cat. No. PK 4000). • 16. DMSO • 17. NUNC 96-well V bottom polypropylene plates (Applied Scientific Cat. No. AS-72092). • 18. Turbo-TMB (Pierce). • 19. Turbo-TMB stop solution: 1 M H2SO4. • 20. ATP (Sigma Cat. No. A-7699). • 21. 20% DMSO in TBS (pH 7.0). Procedure
Cell Growth and Lysate Preparation. • 1. Seed cell into growth medium and grow for 2-3 days to 90-100% confluency at 37° C. and 5% CO2.
2. Remove the medium and wash the cells twice with PBS. Lyse with HNTG lysis buffer. Collect all lysates and vortex mix them for 20-30 seconds. • 3. Remove insoluble material by centrifugation (5-10 min at about 10,000 ×g). • 4. Determine the protein concentration using BCA kit. • 5. Partition lysate into 1 mg aliquots, store at −80° C.
Assay Procedure • 1. Coat Corning 96-well ELISA plates with 2 μg/well purified L4 (or E 38) in 100 μl of PBS. Store overnight at […] • 2. Remove unbound proteins from wells by inverting the plate to remove the liquid. Wash one time with dH2O, pat plate on paper towel to remove excess liquid. • 3. Block plates with 150 μl blocking buffer per well. Incubate for 45-60 minutes with shaking at 4° C. • 4. Remove the blocking buffer and wash the ELISA plate three times with dH2O and one time with TBST. Pat plate on paper towel to remove excess liquid. • 5. Dilute lysate in PBS to give final concentration of 50 μg/100 μl. Add 100 μl of diluted lysate to each well. Incubate with shaking at 4° C. overnight. • 6. Remove unbound proteins from wells by inverting the plate. Wash as in step 4. • 7. Add 80 μl of kinase buffer to wells (90 μl to negative control wells). • 8. Dilute test compounds (normally 10-fold) into wells of a polypropylene plate containing 20% DMSO in TBS. • 9. Add 10 μl of the diluted compounds to the ELISA wells containing immobilized flk-1 and shake. Control wells receive no compounds. • 10. From stock 1 mM ATP, prepare 0.3 mM ATP solution in dH2O (alternatively, kinase buffer may be used). • 11. Add 10 μl of 0.3 mM ATP to all wells except the negative controls. Incubate for 60 min. at room temperature with shaking. • 12. After 1 hr stop the kinase reaction by adding 11 μl 200 mM EDTA. Shake for 1-2 min. • 13. Wash the ELISA plate 4 times with dH2O and twice with TBST. • 14. Add 100 μl of 1:5000 biotinylated 4G10:TBST to all wells. Incubate 45 min with shaking at room temperature. • 15. While the above is incubating, add 50 μl of solutions A & B from the ABC kit to 10 ml of TBST. These solutions must be combined approximately 30 min prior to use. • 16. Wash plates as in step 4. • 17. Add 100 μl of the preformed A & B complex to all wells. Incubate 30 min with shaking at room temperature. • 18. Wash plates as in step 4. • 19. Add 100 μl turbo-TMB. Shake at room temperature for 10-15 min. • 20. When the color in the positive control wells reaches an absorbance of about 0.35-0.4, stop the reaction with 100 μl of turbo-TMB stop solution. • 21. Read plates on Dynatech MR7000 ELISA reader, test filter: 450 nM, reference filter: 410 nM.

flkGST = target: T3, flkGST (Homo sapiens, UniProt P35968); experiment: bio flkGST assay; format: biochemical
T3 construct: GST
T3 sequence (P35968 786-1356 limits assumed): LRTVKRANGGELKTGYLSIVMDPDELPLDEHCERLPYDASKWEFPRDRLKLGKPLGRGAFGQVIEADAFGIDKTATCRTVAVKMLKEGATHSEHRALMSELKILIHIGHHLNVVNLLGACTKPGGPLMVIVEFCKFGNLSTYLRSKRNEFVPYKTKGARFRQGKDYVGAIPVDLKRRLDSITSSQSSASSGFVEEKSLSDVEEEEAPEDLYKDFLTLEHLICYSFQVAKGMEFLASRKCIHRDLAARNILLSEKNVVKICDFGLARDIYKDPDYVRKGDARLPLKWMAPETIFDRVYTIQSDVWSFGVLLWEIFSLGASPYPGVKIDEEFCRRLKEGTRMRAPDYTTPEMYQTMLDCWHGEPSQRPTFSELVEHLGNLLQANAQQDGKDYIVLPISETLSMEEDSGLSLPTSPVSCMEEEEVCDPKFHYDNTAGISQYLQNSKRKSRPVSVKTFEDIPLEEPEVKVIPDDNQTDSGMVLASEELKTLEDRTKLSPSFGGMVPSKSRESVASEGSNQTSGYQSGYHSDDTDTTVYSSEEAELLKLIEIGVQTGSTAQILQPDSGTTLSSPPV

T1 sequence (P09619 33-1106): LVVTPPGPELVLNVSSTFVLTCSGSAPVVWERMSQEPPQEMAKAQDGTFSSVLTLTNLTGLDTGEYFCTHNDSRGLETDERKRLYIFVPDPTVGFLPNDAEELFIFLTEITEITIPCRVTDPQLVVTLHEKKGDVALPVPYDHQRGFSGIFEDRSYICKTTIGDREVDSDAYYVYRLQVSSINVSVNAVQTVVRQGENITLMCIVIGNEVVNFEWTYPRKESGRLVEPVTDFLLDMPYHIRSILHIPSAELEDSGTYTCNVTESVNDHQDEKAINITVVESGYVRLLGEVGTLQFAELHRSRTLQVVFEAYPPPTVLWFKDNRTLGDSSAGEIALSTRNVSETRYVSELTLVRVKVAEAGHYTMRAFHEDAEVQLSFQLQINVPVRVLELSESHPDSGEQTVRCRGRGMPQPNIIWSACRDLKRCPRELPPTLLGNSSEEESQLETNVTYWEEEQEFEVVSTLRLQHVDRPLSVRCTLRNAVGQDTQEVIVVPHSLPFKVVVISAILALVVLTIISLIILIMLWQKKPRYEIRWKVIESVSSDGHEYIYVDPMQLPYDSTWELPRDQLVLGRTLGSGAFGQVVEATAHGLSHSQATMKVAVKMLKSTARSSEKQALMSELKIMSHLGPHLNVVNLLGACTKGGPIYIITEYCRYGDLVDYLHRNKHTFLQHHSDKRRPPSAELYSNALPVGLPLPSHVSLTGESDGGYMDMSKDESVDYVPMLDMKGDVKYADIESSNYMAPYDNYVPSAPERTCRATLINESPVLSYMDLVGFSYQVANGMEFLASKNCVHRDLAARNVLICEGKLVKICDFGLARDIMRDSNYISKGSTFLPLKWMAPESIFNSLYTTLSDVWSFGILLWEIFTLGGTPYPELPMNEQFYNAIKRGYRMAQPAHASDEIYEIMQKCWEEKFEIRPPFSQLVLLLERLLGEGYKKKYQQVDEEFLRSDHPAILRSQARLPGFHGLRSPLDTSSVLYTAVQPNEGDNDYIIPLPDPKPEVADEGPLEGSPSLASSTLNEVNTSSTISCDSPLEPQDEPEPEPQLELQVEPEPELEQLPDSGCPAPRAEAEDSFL
Myc-GyrB-FGFR fusion protein, sequence (P11362 478-767 limits assumed): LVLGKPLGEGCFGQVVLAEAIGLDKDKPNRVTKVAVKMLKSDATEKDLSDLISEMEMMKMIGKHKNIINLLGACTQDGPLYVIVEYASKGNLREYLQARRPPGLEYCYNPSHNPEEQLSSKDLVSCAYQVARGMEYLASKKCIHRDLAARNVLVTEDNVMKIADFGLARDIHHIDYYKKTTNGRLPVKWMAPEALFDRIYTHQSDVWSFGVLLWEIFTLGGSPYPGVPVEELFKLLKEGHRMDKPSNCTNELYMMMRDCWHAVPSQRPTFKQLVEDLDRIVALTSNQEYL
T2 sequence (P35968 20-1356): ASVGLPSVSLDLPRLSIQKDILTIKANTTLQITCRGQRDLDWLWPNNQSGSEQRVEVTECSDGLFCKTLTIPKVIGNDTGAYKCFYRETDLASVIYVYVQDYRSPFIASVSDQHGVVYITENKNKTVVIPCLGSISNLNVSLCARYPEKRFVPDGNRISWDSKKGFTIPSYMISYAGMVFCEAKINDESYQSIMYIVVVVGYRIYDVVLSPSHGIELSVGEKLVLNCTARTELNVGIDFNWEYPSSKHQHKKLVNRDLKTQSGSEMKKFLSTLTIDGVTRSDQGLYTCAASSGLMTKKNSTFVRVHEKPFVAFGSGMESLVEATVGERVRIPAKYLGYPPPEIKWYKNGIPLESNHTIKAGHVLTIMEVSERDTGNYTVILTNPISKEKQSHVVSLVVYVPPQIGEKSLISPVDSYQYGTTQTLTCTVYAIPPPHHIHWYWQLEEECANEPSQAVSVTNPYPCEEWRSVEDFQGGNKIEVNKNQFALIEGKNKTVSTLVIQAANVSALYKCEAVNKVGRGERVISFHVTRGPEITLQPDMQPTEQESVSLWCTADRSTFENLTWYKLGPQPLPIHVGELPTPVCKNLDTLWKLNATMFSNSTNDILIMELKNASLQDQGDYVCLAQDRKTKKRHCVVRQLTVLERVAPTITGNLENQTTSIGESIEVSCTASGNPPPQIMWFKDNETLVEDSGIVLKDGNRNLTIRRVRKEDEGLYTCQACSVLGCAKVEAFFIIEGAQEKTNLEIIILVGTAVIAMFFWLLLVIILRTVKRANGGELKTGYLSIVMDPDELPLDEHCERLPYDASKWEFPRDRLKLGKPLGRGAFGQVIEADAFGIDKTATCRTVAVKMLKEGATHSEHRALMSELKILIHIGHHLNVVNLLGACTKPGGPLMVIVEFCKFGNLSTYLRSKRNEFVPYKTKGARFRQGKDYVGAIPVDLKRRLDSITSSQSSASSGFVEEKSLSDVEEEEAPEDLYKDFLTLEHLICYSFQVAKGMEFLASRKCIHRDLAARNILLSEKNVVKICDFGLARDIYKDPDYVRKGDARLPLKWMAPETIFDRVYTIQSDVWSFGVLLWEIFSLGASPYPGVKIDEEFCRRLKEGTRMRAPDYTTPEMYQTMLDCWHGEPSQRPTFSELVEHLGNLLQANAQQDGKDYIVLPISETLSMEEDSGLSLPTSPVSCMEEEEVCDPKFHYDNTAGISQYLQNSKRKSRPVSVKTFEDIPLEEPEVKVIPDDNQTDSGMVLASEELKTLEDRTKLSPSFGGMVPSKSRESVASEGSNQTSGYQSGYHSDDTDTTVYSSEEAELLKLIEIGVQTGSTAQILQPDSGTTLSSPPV

| IC50 (PDGFR-β) [nM] | IC50 [1] [nM] | IC50 (human flk-1) [µM] | IC50 (flkGST) [nM] | Compound |
| --- | --- | --- | --- | --- |
| 25100 | > 20000 | 2.1 | < 8 | O=C1Nc2ccc(C(=O)O)cc2/C1=C/c1cc2ccccc2[nH]1 [Example 161, 3-(-1H-Indol-2-ylmethylene)-2-oxo-2,3-dihydro-1H-indole-5-carboxylic acid] |
| 2720 | 5270 | 1.53 | 120 | Nc1ccc2c(c1)/C(=C/c1cc3ccccc3[nH]1)C(=O)N2 [Example 160, 5-Amino-3-(1H-indol-2-ylmethylene)-1,3-dihydro-indol-2-one] |

| Compound | IC50 (PDGFR-β) [nM] | IC50 [1] [nM] | IC50 (human flk-1) [µM] | IC50 (flkGST) [nM] |
| --- | --- | --- | --- | --- |
| COc1ccccc1-c1ccc2c(c1)NC(=O)/C2=C\c1[nH]c2c(c1CCC(=O)O)CCCC2 [Example 207, 3-{2-[6-(2-Methoxyphenyl)-2-oxo-1,2-dihydro-indol-3-ylidenemethyl]-4,5,6,7-tetrahydro-1H-indol-3-yl}-propionic acid] | 870 | 7700 | 2.72 | 1500 |
